# Measurements as given in patent US20240018123A1, “COMPOUND FOR INHIBITING OR DISINTEGRATING ANDROGEN RECEPTOR, AND PHARMACEUTICAL USE THEREOF” (KOREA RESEARCH INSTITUTE OF CHEMICAL TECHNOLOGY, priority 2020, published 2024).
# Tests used:
# Androgen receptor (AR) = biological target: T1, Androgen receptor (AR) (Homo sapiens, UniProt P10275, T878A); experiment: Assessment of AR proteolytic activity (Western blotting of LNCap cell lysates); assay type: cell-based; conditions: 24 hours of treatment, Western blotting quantified with Image J
# T1 construct: 5.5×10^5 LNCap cells were injected into each well of a 6-well plate; endogenous in cells; host or cells: LNCaP
# T1 sequence (P10275 1-920 T878A): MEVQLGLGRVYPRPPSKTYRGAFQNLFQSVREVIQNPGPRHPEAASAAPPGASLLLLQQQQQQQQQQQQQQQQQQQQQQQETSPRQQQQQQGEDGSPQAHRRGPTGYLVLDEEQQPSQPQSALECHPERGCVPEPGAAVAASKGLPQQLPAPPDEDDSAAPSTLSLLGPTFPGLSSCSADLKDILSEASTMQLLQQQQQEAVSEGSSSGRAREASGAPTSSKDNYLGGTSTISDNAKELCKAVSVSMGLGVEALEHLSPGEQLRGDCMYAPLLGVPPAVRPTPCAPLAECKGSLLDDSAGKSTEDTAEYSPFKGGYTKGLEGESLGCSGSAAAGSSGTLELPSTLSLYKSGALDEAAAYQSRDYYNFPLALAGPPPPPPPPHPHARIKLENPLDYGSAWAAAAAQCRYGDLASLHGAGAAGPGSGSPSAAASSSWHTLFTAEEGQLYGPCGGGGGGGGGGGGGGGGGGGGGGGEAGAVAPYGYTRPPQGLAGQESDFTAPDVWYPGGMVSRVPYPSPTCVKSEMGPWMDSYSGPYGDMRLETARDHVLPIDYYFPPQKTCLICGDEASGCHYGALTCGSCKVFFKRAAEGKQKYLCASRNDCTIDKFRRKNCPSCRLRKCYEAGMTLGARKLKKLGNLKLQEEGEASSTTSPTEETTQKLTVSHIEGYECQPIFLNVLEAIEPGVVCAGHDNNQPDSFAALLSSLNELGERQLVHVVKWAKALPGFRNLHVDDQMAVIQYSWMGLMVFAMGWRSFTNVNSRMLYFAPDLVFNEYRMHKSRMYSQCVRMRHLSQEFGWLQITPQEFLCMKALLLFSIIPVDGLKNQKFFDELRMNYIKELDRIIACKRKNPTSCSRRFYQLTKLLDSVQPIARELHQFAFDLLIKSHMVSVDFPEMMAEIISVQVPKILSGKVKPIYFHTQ
# Outline: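 LNCap cells seeded at 5.5×10^5 per well and treated with compound for 24 hours. Lysates prepared in RIPA buffer (pH 7.5, with protease inhibitors). AR protein levels assessed by Western blot with densitometric quantification.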
# VCaP cells = experiment: Cytotoxicity assessment (Cell-titer-glo cell viability), VCaP; conditions: read-out: VCaP (CC50); VCaP cells, 6 days of treatment, Cell-titer-glo, vs DMSO
Compound,"Degradation (1 μM treated in LNCaP, % AR remaining) (Androgen receptor (AR))",CC50 (VCaP cells)
"CC1(C)C(NC(=O)c2ccc(-c3cnn(C4CCN(CC5CCN(C(=O)C6CCN(c7ccc8nnn(C9CCC(=O)NC9=O)c(=O)c8c7)CC6)CC5)CC4)c3)cc2)C(C)(C)C1Oc1ccc(C#N)c(Cl)c1 (stereo not drawn) [Example 82, N-((1r,3r)-3-(3-chloro-4-cyanophenoxy)-2,2,4,4-tetramethylcyclobutyl)-4-(1-(1-((1-(1-(3-(2,6-dioxopiperidin-3-yl)-4-oxo-3,4-dihydrobenzo[d][1,2,3]triazin-6-yl)piperidine-4-carbonyl)piperidin-4-yl)methyl)piperidin-4-yl)-1H-pyrazol-4-yl)benzamide]",27%,14.4 nM
"CC1(C)[C@H](NC(=O)c2ccc(N3CCN(C(=O)C4CCN(c5ccc6nnn(C7CCC(=O)NC7=O)c(=O)c6c5)CC4)CC3)cc2)C(C)(C)[C@H]1Oc1ccc(C#N)c(Cl)c1 (stereo partly drawn) [Example 42, N-((1r,3r)-3-(3-chloro-4-cyanophenoxy)-2,2,4,4-tetramethylcyclobutyl)-4-(4-(1-(3-(2,6-dioxopiperidin-3-yl)-4-oxo-3,4-dihydrobenzo[d][1,2,3]triazin-6-yl)piperidine-4-carbonyl)piperazin-1-yl)benzamide]",10%,49.4 nM
"CC1(C)[C@H](NC(=O)c2ccc(C#CCC3CCN(C(=O)C4CCN(c5ccc6nnn(C7CCC(=O)NC7=O)c(=O)c6c5)CC4)CC3)cc2)C(C)(C)[C@H]1Oc1ccc(C#N)c(Cl)c1 (stereo partly drawn) [Example 86, N-((1r,3r)-3-(3-chloro-4-cyanophenoxy)-2,2,4,4-tetramethylcyclobutyl)-4-(3-(1-(1-(3-(2,6-dioxopiperidin-3-yl)-4-oxo-3,4-dihydrobenzo[d][1,2,3]triazin-6-yl)piperidine-4-carbonyl)piperidin-4-yl)prop-1-yn-1-yl)benzamide]",20%,34.9 nM
"CC1(C)C(NC(=O)c2ccc(N3CCN(CCCC4CCN(C(=O)C5CCN(c6ccc7nnn(C8CCC(=O)NC8=O)c(=O)c7c6)CC5)CC4)CC3)cc2)C(C)(C)C1Oc1ccc(C#N)c(Cl)c1 (stereo not drawn) [Example 46, N-((1r,3r)-3-(3-chloro-4-cyanophenoxy)-2,2,4,4-tetramethylcyclobutyl)-4-(4-(3-(1-(1-(3-(2,6-dioxopiperidin-3-yl)-4-oxo-3,4-dihydrobenzo[d][1,2,3]triazin-6-yl)piperidine-4-carbonyl)piperidin-4-yl)propyl)piperazin-1-yl)benzamide]",15.6%,52.2 nM
"CC1(C)[C@H](NC(=O)c2ccc(N3CCN(C(=O)CNc4ccc5nnn(C6CCC(=O)NC6=O)c(=O)c5c4)CC3)cc2)C(C)(C)[C@H]1Oc1ccc(C#N)c(Cl)c1 (stereo partly drawn) [Example 40, N-((1r,3r)-3-(3-chloro-4-cyanophenoxy)-2,2,4,4-tetramethylcyclobutyl)-4-(4-((3-(2,6-dioxopiperidin-3-yl)-4-oxo-3,4-dihydrobenzo[d][1,2,3]triazin-6-yl)glycyl)piperazin-1-yl)benzamide]",19.7%,24.3 nM
"CC1(C)C(NC(=O)c2ccc(N3CCN(CCCOC4CCN(C(=O)CNc5ccc6nnn(C7CCC(=O)NC7=O)c(=O)c6c5)CC4)CC3)cc2)C(C)(C)C1Oc1ccc(C#N)c(Cl)c1 (stereo not drawn) [Example 37, N-((1r,3r)-3-(3-chloro-4-cyanophenoxy)-2,2,4,4-tetramethylcyclobutyl)-4-(4-(3-((1-((3-(2,6-dioxopiperidin-3-yl)-4-oxo-3,4-dihydrobenzo[d][1,2,3]triazin-6-yl)glycyl)piperidin-4-yl)oxy)propyl)piperazin-1-yl)benzamide]",14.9%,29.1 nM
"CC1(C)C(NC(=O)c2ccc(N3CCN(CC4CCN(c5ccc6nnn(C7CCC(=O)NC7=O)c(=O)c6c5)CC4)CC3)nc2)C(C)(C)C1Oc1ccc(C#N)c(Cl)c1 (stereo not drawn) [Example 78, N-((1r,3r)-3-(3-chloro-4-cyanophenoxy)-2,2,4,4-tetramethylcyclobutyl)-6-(4-((1-(3-(2,6-dioxopiperidin-3-yl)-4-oxo-3,4-dihydrobenzo[d][1,2,3]triazin-6-yl)piperidin-4-yl)methyl)piperazin-1-yl)nicotinamide]",24%,7.68 nM
"CC1(C)[C@H](NC(=O)c2ccc(C3CCN(CC4CCN(C(=O)C5CCN(c6ccc7nnn(C8CCC(=O)NC8=O)c(=O)c7c6)CC5)CC4)CC3)cc2)C(C)(C)[C@H]1Oc1ccc(C#N)c(Cl)c1 (stereo partly drawn) [Example 51, N-((1r,3r)-3-(3-chloro-4-cyanophenoxy)-2,2,4,4-tetramethylcyclobutyl)-4-(1-((1-(1-(3-(2,6-dioxopiperidin-3-yl)-4-oxo-3,4-dihydrobenzo[d][1,2,3]triazin-6-yl)piperidine-4-carbonyl)piperidin-4-yl)methyl)piperidin-4-yl)benzamide]",10.4%,228 nM
"CC1(C)C(NC(=O)c2ccc(N3CCN(CC4(F)CCN(C(=O)C5CCN(c6ccc7nnn(C8CCC(=O)NC8=O)c(=O)c7c6)CC5)CC4)CC3)cc2)C(C)(C)C1Oc1ccc(C#N)c(Cl)c1 (stereo not drawn) [Example 62, N-((1r,3r)-3-(3-chloro-4-cyanophenoxy)-2,2,4,4-tetramethylcyclobutyl)-4-(4-((1-(1-(3-(2,6-dioxopiperidin-3-yl)-4-oxo-3,4-dihydrobenzo[d][1,2,3]triazin-6-yl)piperidine-4-carbonyl)-4-fluoropiperidin-4-yl)methyl)piperazin-1-yl)benzamide]",15%,34.5 nM
"CC1(C)C(NC(=O)c2ccc(N3CCN(C=C4CCN(C(=O)C5CCN(c6ccc7nnn(C8CCC(=O)NC8=O)c(=O)c7c6)CC5)CC4)CC3)cc2)C(C)(C)C1Oc1ccc(C#N)c(Cl)c1 (stereo not drawn) [Example 65, N-((1r,3r)-3-(3-chloro-4-cyanophenoxy)-2,2,4,4-tetramethylcyclobutyl)-4-(4-((1-(1-(3-(2,6-dioxopiperidin-3-yl)-4-oxo-3,4-dihydrobenzo[d][1,2,3]triazin-6-yl)piperidine-4-carbonyl)piperidin-4-ylidene)methyl)piperazin-1-yl)benzamide]",25%,44 nM
"CC1(C)C(NC(=O)c2ccc(C#CCC3CCN(C4CCN(c5ccc6nnn(C7CCC(=O)NC7=O)c(=O)c6c5)CC4)CC3)cc2)C(C)(C)C1Oc1ccc(C#N)c(Cl)c1 (stereo not drawn) [Example 89, N-((1r,3r)-3-(3-chloro-4-cyanophenoxy)-2,2,4,4-tetramethylcyclobutyl)-4-(3-(1 ? (3-(2,6-dioxopiperidin-3-yl)-4-oxo-3,4-dihydrobenzo[d][1,2,3]triazin-6-yl)-[1,4 ? bipiperdin]-4-yl)prop-1-yn-1-yl)benzamide]",,112 nM
"CC1(C)C(NC(=O)c2cnc(N3CCN(CC4CCN(C(=O)C5CN(c6ccc7nnn(C8CCC(=O)NC8=O)c(=O)c7c6)C5)CC4)CC3)nc2)C(C)(C)C1Oc1ccc(C#N)c(Cl)c1 (stereo not drawn) [Example 146, N-((1r,3r)-3-(3-chloro-4-cyanophenoxy)-2,2,4,4-tetramethylcyclobutyl)-2-(4-((1-(1-(3-(2,6-dioxopiperidin-3-yl)-4-oxo-3,4-dihydrobenzo[d][1,2,3]triazin-6-yl)azetidine-3-carbonyl)piperidin-4-yl)methyl)piperazin-1-yl)pyrimidine-5-carboxamide]",,~10 nM
"CC1(C)C(NC(=O)c2ccc(-n3cc(CNC(=O)C4CCN(c5ccc6nnn(C7CCC(=O)NC7=O)c(=O)c6c5)CC4)nn3)cc2)C(C)(C)C1Oc1ccc(C#N)c(Cl)c1 (stereo not drawn) [Example 150, N-((1-(4-(((1r,3r)-3-(3-chloro-4-cyanophenoxy)-2,2,4,4-tetramethylcyclobutyl)carbamoyl)phenyl)-1H-1,2,3-triazol-4-yl)methyl)-1-(3-(2,6-dioxopiperidin-3-yl)-4-oxo-3,4-dihydrobenzo[d][1,2,3]triazin-6-yl)piperidine-4-carboxamide]",,24.4 nM
"CC1(C)C(NC(=O)c2ccc(-c3cnn(C4CCN(CC5CCN(C(=O)CNc6ccc7nnn(C8CCC(=O)NC8=O)c(=O)c7c6)CC5)CC4)c3)nc2)C(C)(C)C1Oc1ccc(C#N)c(Cl)c1 (stereo not drawn) [Example 125, N-((1r,3r)-3-(3-chloro-4-cyanophenoxy)-2,2,4,4-tetramethylcyclobutyl)-6-(1-(1-((1-((3-(2,6-dioxopiperidin-3-yl)-4-oxo-3,4-dihydrobenzo[d][1,2,3]triazin-6-yl)glycyl)piperidin-4-yl)methyl)piperidin-4-yl)-1H-pyrazol-4-yl)nicotinamide]",,15.5 nM
